{
  "source": "paper PMC10799935",
  "about": "“Discovery of a peripheral 5HT2A antagonist as a clinical candidate for metabolic dysfunction-associated steatohepatitis” (Nature Communications, 2024)",
  "key": {"[1]": {"test_system": "HFD-fed C57BL/6J mice", "assay": "DIO mice (HFD, 8 weeks): body weight", "assay_type": "in vivo, mouse", "conditions": "for Body weight: Predicted (LS) mean diff., Vehicle vs. 11c: Dunnett's test; for 16hr fasting B.W.: DIO C57BL/6J mice, PO; for Body weight: DIO mice, individual mice and group Mean, in g (unit assumed)", "source_text": "For in vivo efficacy in DIO models and CDAHFD models, the experimental protocol for this study was approved by the Institutional Animal Care and Use Committee (IACUC) at the Korea Advanced Institute of Science and Technology (No. KA2023-027-v2) or Kyungpook National University (No. KNU-20200134). All relevant ethical guidelines were followed. C57BL/6 J male mice (11 weeks old) were purchased from the Charles River Japan and were housed in a specific pathogen-free barrier facility under a regular light-dark cycle (12-hour light/12-hour dark) at 24°C with 40–60% humidity. Food (standard chow diet, Envigo, 2018S) and water were provided ad libitum. […] Mice were euthanized by the method of cervical dislocation. The measurement of lean and fat mass in live mice was performed by a body composition analyzer (LF50 BCA-analyzer, Bruker). After 6 h of fasting, mice were sacrificed, and tissue samples were obtained."}, "[2]": {"target": "CYP3A4 (Homo sapiens, UniProt P08684)", "sequence (P08684 whole entry)": "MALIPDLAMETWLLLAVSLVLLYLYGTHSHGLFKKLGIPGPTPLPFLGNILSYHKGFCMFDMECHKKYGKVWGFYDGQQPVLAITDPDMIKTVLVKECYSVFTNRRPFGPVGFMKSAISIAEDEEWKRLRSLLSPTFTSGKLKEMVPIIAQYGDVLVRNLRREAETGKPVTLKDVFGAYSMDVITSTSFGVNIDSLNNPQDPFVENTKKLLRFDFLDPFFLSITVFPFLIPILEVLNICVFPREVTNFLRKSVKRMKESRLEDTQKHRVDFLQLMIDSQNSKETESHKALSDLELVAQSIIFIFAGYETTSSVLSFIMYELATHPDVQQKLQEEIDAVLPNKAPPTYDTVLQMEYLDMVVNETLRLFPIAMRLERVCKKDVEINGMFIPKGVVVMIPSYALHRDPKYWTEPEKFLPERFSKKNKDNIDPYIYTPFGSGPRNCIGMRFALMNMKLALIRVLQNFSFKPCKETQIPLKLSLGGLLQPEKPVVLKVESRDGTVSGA", "assay": "in vitro"}, "[3]": {"target": "CYP2D6 (Homo sapiens, UniProt P10635)", "sequence (P10635 whole entry)": "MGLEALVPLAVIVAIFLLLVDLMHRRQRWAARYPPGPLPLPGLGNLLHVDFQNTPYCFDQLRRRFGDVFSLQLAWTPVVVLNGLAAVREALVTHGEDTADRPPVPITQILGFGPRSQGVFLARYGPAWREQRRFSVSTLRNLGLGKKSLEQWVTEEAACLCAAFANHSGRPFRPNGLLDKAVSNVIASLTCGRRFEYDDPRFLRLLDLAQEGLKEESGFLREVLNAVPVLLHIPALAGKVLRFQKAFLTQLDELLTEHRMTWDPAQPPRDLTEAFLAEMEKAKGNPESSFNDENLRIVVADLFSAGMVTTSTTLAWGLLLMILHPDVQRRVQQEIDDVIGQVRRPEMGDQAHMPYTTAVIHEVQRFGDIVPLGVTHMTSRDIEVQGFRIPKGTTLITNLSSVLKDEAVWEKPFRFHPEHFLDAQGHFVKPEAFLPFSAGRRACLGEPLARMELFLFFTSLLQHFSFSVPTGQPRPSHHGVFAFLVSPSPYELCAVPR", "assay": "in vitro"}, "[4]": {"assay": "Hepatocyte stability test, human", "assay_type": "in vitro ADME", "conditions": "both sexes, cryopreserved hepatocytes, pH 7.4, read-out: Hepatocyte stability (% remaining after 3 h)", "description": "Hepatocyte incubations for the test compound (10 μM final concentration, n = 2 per each time point) were carried out in mouse, rat, dog, monkey and human cryopreserved hepatocytes, resuspended at a density of 0.5 million cells/ml of modified Krebs-Henseleit buffer (KHB). The information regarding the hepatocytes used in the experiment is as follows: liverPool® 10-donor mixed gender human (BioIVT, Cat.No. X008001, lot EAV), male cynomolgus monkey (BioIVT, Cat.No. M00305, lot COJ), male Beagle dog (BioIVT, Cat.No. M00205, lot USY), male Sprague Dawley rat (BioIVT, Cat.No. M00005, lot TQE) and male CD1 mouse (BioIVT, Cat.No.005052, lot LFF). In addition, the compound was also incubated with blank KHB. The final concentration of solvent (DMSO) was 0.1% of the final volume. The incubations were performed for 3 hours at 37°C and pH 7.4. Reactions were terminated at 0 and 180 minutes by the addition of 3 volumes of stop solution (acetonitrile/methanol (2:1, v/v) containing internal standard–diclofenac at 100 ng/ml). Samples (compound spiked buffer and compound spiked hepatocytes, as well as blank samples, i.e. hepatocytes with the same DMSO%) were then centrifuged and aliquots were transferred to 96-deep micronic tubes and frozen at -80 °C until LC-MS/MS analysis. […]"}},
  "note": "Several values for one entry are separate records, joined by “and”; a condition that tells them apart may be missing. Equal values may be shown once.",
  "data": [
    {"molecule": "Cc1nc2n(c(=O)c1CCN1CCC(=C3c4ccc(Cl)cc4CCc4cccnc43)CC1)CCCC2O", "note": "(centres unmarked) [Compound 11c]", "values": [
      {"measurement": "Body weight: Predicted (LS) mean diff., Vehicle vs. 11c", "setting": "[1]; 5mpk, week 12", "value": 0.7, "unit": "g"},
      {"measurement": "Body weight: Predicted (LS) mean diff., Vehicle vs. 11c", "setting": "[1]; 5mpk, week 13", "value": 0.6, "unit": "g"},
      {"measurement": "Body weight: Predicted (LS) mean diff., Vehicle vs. 11c", "setting": "[1]; 5mpk, week 14", "value": 0.7, "unit": "g"},
      {"measurement": "Body weight: Predicted (LS) mean diff., Vehicle vs. 11c", "setting": "[1]; 5mpk, week 15", "value": 0.6, "unit": "g"},
      {"measurement": "Body weight: Predicted (LS) mean diff., Vehicle vs. 11c", "setting": "[1]; 5mpk, week 16", "value": 1.1, "unit": "g"},
      {"measurement": "Body weight: Predicted (LS) mean diff., Vehicle vs. 11c", "setting": "[1]; 5mpk, week 17", "value": 1.7, "unit": "g"},
      {"measurement": "Body weight: Predicted (LS) mean diff., Vehicle vs. 11c", "setting": "[1]; 5mpk, week 18", "value": 2.1, "unit": "g"},
      {"measurement": "Body weight: Predicted (LS) mean diff., Vehicle vs. 11c", "setting": "[1]; 5mpk, week 19", "value": 2.7, "unit": "g"},
      {"measurement": "Body weight: Predicted (LS) mean diff., Vehicle vs. 11c", "setting": "[1]; 5mpk, week 20", "value": 2.7, "unit": "g"},
      {"measurement": "Body weight: Predicted (LS) mean diff., Vehicle vs. 11c", "setting": "[1]; 5mpk, week 21", "value": 3.4, "unit": "g"},
      {"measurement": "body weight gain upon HFD", "setting": "[1]; 10 mpk daily oral gavage, 8 weeks, vs vehicle-treated mice", "value": "attenuated"},
      {"measurement": "Body weight: Predicted (LS) mean diff., Vehicle vs. 11c", "setting": "[1]; 10mpk, week 12", "value": 0.1, "unit": "g"},
      {"measurement": "Body weight: Predicted (LS) mean diff., Vehicle vs. 11c", "setting": "[1]; 10mpk, week 13", "value": 0.9, "unit": "g"},
      {"measurement": "Body weight: Predicted (LS) mean diff., Vehicle vs. 11c", "setting": "[1]; 10mpk, week 14", "value": 1.5, "unit": "g"},
      {"measurement": "Body weight: Predicted (LS) mean diff., Vehicle vs. 11c", "setting": "[1]; 10mpk, week 15", "value": 1.8, "unit": "g"},
      {"measurement": "Body weight: Predicted (LS) mean diff., Vehicle vs. 11c", "setting": "[1]; 10mpk, week 16", "value": 3.7, "unit": "g"},
      {"measurement": "Body weight: Predicted (LS) mean diff., Vehicle vs. 11c", "setting": "[1]; 10mpk, week 17", "value": 6.3, "unit": "g"},
      {"measurement": "Body weight: Predicted (LS) mean diff., Vehicle vs. 11c", "setting": "[1]; 10mpk, week 18", "value": 7.2, "unit": "g"},
      {"measurement": "Body weight: Predicted (LS) mean diff., Vehicle vs. 11c", "setting": "[1]; 10mpk, week 19", "value": 7.7, "unit": "g"},
      {"measurement": "Body weight: Predicted (LS) mean diff., Vehicle vs. 11c", "setting": "[1]; 10mpk, week 20", "value": 7.2, "unit": "g"},
      {"measurement": "Body weight: Predicted (LS) mean diff., Vehicle vs. 11c", "setting": "[1]; 10mpk, week 21", "value": 7.2, "unit": "g"},
      {"measurement": "16hr fasting B.W.", "setting": "[1]; 5mpk, group mean", "value": 41.2},
      {"measurement": "16hr fasting B.W.", "setting": "[1]; 5mpk, individual animals, 5 mg/kg", "value": "43.7 and 38.6 and 37.5 and 35.1 and 41.4 and 48.5 and 43.4"},
      {"measurement": "16hr fasting B.W.", "setting": "[1]; 10mpk, group mean", "value": 36.5},
      {"measurement": "16hr fasting B.W.", "setting": "[1]; 10mpk, individual animals, 10 mg/kg", "value": "33.5 and 41.1 and 34.8 and 42.8 and 35.7 and 31.2"},
      {"measurement": "Body weight", "setting": "[1]; 5mpk PO, week 12 (2021.04.26), 5 mg/kg", "value": "25.4 and 23.4 and 24.4 and 26.8 and 26.0 and 30.2 and 25.6"},
      {"measurement": "Body weight", "setting": "[1]; 5mpk PO, week 13, 5 mg/kg", "value": "29.8 and 27.5 and 28.5 and 28.2 and 28.9 and 32.0 and 29.6"},
      {"measurement": "Body weight", "setting": "[1]; 5mpk PO, week 13, 5 mg/kg, mean", "value": 29.2},
      {"measurement": "Body weight", "setting": "[1]; 5mpk PO, week 14, 5 mg/kg", "value": "32.9 and 29.6 and 29.0 and 31.0 and 34.0 and 31.6"},
      {"measurement": "Body weight", "setting": "[1]; 5mpk PO, week 15, 5 mg/kg", "value": "35.3 and 30.6 and 29.8 and 29.5 and 33.2 and 37.1 and 34.1"},
      {"measurement": "Body weight", "setting": "[1]; 5mpk PO, week 15, 5 mg/kg, mean", "value": 32.8},
      {"measurement": "Body weight", "setting": "[1]; 5mpk PO, week 16, 5 mg/kg", "value": "37.5 and 32.7 and 32.5 and 31.1 and 35.5 and 40.4 and 36.8"},
      {"measurement": "Body weight", "setting": "[1]; 5mpk PO, week 16, 5 mg/kg, mean", "value": 35.2},
      {"measurement": "Body weight", "setting": "[1]; 5mpk PO, week 17, 5 mg/kg", "value": "39.7 and 34.6 and 33.9 and 32.4 and 37.7 and 43.6 and 39.6"},
      {"measurement": "Body weight", "setting": "[1]; 5mpk PO, week 17, 5 mg/kg, mean", "value": 37.4},
      {"measurement": "Body weight", "setting": "[1]; 5mpk PO, week 18, 5 mg/kg", "value": "41.7 and 36.9 and 35.3 and 33.1 and 40.0 and 45.0 and 41.5"},
      {"measurement": "Body weight", "setting": "[1]; 5mpk PO, week 18, 5 mg/kg, mean", "value": 39.1},
      {"measurement": "Body weight", "setting": "[1]; 5mpk PO, week 19, 5 mg/kg", "value": "43.5 and 38.6 and 37.3 and 34.8 and 41.8 and 47.5 and 43.3"},
      {"measurement": "Body weight", "setting": "[1]; 5mpk PO, week 19, 5 mg/kg, mean", "value": 41.0},
      {"measurement": "Body weight", "setting": "[1]; 5mpk PO, week 20, 5 mg/kg", "value": "45.7 and 40.4 and 39.5 and 37.0 and 43.5 and 51.0 and 45.4"},
      {"measurement": "Body weight", "setting": "[1]; 5mpk PO, week 20, 5 mg/kg, mean", "value": 43.2},
      {"measurement": "Body weight", "setting": "[1]; 5mpk PO, week 21, 5 mg/kg", "value": "44.4 and 40.2 and 39.8 and 36.4 and 42.4 and 50.0 and 45.2"},
      {"measurement": "Body weight", "setting": "[1]; 5mpk PO, week 21, 5 mg/kg, mean", "value": 42.6},
      {"measurement": "Body weight", "setting": "[1]; 10mpk PO, week 12 (2021.04.26), 10 mg/kg", "value": "26.6 and 29.1"},
      {"measurement": "Body weight", "setting": "[1]; 10mpk PO, week 13, 10 mg/kg", "value": "29.9 and 31.2"},
      {"measurement": "Body weight", "setting": "[1]; 10mpk PO, week 14, 10 mg/kg", "value": "31.8 and 32.6"},
      {"measurement": "Body weight", "setting": "[1]; 10mpk PO, week 15, 10 mg/kg", "value": "34.0 and 33.3 and 29.5"},
      {"measurement": "Body weight", "setting": "[1]; 10mpk PO, week 16, 10 mg/kg", "value": "36.3 and 34.1 and 30.0"},
      {"measurement": "Body weight", "setting": "[1]; 10mpk PO, week 17, 10 mg/kg", "value": "36.6 and 35.0 and 29.8"},
      {"measurement": "Body weight", "setting": "[1]; 10mpk PO, week 18, 10 mg/kg", "value": "35.5 and 37.1"},
      {"measurement": "Body weight", "setting": "[1]; 10mpk PO, week 19, 10 mg/kg", "value": "34.6 and 39.9"},
      {"measurement": "Body weight", "setting": "[1]; 10mpk PO, week 20, 10 mg/kg", "value": "35.7 and 43.1"},
      {"measurement": "Body weight", "setting": "[1]; 10mpk PO, week 21, 10 mg/kg", "value": "36.0 and 43.2"},
      {"measurement": "inhibition at 10 µM", "setting": "[2]", "value": 17.6, "unit": "%"},
      {"measurement": "inhibition at 10 µM", "setting": "[3]", "value": 26.3, "unit": "%"},
      {"measurement": "remaining at 3 h, 10 μM", "setting": "[4]", "value": 94, "unit": "%"}
    ]}
  ]
}
